Measured values reported in US20180099931A1 (AbbVie S.à.r.l., priority 2016, published 2018).
Where two headings read alike, the source gives them in different places.

Target: T1, F508delCFTR (Homo sapiens, UniProt P13569, DEL508-508)
T1 construct: expressed in transfected cells; host or cells: CFBE41o- human lung-derived epithelial cells (CFBE4lo-F508delCFTR-HRP), doxycycline-inducible
Assay: Cell Surface Expression-Horse Radish Peroxidase (CSE-HRP) Assay;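 on Maximum % activity (with co-corrector): co-corrector and positive control are both the same reference corrector at 2 µM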;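 on Maximum % activity (without co-corrector): percent of the 2 µM on-plate positive control corrector response above DMSO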
Format: cell-based
Conditions: for Emax: read-out: Maximum % activity (without co-corrector)

[1] = CSE-HRP, test compound without co-corrector, read-out: EC50 (without co-corrector)
[2] = CSE-HRP, with co-corrector (2 μM of 3-[(2R,4R)-4-({[1-(2,2-difluoro-1,3-benzodioxol-5-yl)cyclopropyl]carbonyl}amino)-7-methoxy-3,4-dihydro-2H-chromen-2-yl]benzoic acid), read-out: EC50 (with co-corrector)
[3] = CSE-HRP, with co-corrector (2 μM), maximum at any tested concentration, normalized to on-plate positive control
[4] = CSE-HRP, without co-corrector, maximum at any tested concentration, normalized to on-plate positive control
[5] = test compound without co-corrector, read-out: EC50 (without co-corrector)
[6] = with co-corrector (2 μM of 3-[(2R,4R)-4-({[1-(2,2-difluoro-1,3-benzodioxol-5-yl)cyclopropyl]carbonyl}amino)-7-methoxy-3,4-dihydro-2H-chromen-2-yl]benzoic acid), read-out: EC50 (with co-corrector)
[7] = with co-corrector (2 μM), maximum at any tested concentration, normalized to on-plate positive control
[8] = without co-corrector, maximum at any tested concentration, normalized to on-plate positive control
[9] = with co-corrector (2 μM of 3-[(2R,4R)-4-({[1-(2,2-difluoro-1,3-benzodioxol-5-yl)cyclopropyl]carbonyl}amino)-7-methoxy-3,4-dihydro-2H-chromen-2-yl]benzoic acid), maximum at any tested concentration, normalized to on-plate positive control
[10] = test compound without co-corrector, maximum at any tested concentration, normalized to on-plate positive control

T1 sequence (P13569 with tags, fused parts or gaps DEL508-508): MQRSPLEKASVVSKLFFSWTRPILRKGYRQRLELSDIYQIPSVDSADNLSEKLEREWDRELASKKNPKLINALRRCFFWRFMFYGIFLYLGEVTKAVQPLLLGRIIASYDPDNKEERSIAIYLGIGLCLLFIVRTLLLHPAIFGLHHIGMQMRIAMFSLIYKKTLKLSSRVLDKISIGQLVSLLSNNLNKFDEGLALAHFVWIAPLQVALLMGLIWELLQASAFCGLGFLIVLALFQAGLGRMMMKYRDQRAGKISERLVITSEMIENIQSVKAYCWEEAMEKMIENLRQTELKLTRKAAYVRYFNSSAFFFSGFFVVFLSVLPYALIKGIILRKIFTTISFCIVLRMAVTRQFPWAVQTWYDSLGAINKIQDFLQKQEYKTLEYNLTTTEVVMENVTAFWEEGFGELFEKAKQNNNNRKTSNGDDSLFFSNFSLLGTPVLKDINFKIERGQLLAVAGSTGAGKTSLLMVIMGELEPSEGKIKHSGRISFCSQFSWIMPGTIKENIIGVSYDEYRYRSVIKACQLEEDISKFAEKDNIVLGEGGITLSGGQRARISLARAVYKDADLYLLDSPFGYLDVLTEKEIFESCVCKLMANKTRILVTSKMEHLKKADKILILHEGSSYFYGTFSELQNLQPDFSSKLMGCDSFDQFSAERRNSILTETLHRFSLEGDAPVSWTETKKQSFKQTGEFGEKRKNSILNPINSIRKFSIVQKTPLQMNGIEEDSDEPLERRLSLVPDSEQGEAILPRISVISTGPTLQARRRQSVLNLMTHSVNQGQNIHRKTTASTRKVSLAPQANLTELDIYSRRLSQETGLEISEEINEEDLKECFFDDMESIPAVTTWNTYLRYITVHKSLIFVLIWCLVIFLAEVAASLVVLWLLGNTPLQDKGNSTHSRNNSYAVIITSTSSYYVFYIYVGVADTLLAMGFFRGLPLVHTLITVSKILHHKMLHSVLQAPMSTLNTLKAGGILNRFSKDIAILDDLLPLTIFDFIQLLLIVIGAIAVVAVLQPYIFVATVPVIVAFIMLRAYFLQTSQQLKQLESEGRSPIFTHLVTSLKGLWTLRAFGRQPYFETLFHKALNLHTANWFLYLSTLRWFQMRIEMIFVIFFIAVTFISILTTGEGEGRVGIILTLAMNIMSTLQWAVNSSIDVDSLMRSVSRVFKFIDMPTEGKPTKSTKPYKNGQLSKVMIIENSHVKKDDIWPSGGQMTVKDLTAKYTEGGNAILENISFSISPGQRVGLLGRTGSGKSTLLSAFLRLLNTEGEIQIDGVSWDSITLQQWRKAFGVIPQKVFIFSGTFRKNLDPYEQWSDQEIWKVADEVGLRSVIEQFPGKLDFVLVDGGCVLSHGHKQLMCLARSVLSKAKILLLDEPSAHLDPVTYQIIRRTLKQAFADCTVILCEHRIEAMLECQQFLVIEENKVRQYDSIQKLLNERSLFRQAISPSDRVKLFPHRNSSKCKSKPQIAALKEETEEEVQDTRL

| EC50 [1] | EC50 [2] | Maximum % activity (with co-corrector) [3] | Emax [4] | EC50 [5] | EC50 [6] | Maximum % activity (with co-corrector) [7] | Emax [8] | Maximum % activity (with co-corrector) [9] | Emax [10] | Maximum % activity (without co-corrector) [8] | Compound |
| --- | --- | --- | --- | --- | --- | --- | --- | --- | --- | --- | --- |
| 1 to 10 µM | 1 to 10 µM | +++ (≥350) | > 200% |  |  |  |  |  |  |  | COc1ncc(C(F)(F)F)cc1CN[C@H]1[C@H](C(C)(C)C)[C@@H](C(=O)O)N(C(=O)C2CC2)[C@H]1c1ccccc1C(C)C [Example I-271] |
|  |  |  |  | 1 to 10 µM | < 1 µM | +++ (≥350) | > 200% |  |  |  | COc1ccc(C(C)C)cc1CN[C@H]1[C@H](C(C)(C)C)[C@@H](C(=O)O)N(C(=O)C2CCCCC2)[C@H]1c1ccc(F)cc1 [Example I-109] |
|  |  |  |  | 1 to 10 µM |  |  |  | +++ (≥350) |  |  | COc1ccc(C(C)(C)C)cc1CN[C@H]1[C@H](C(C)(C)C)[C@@H](C(=O)O)N(C(=O)C2CCCCO2)[C@H]1c1cccnc1OC(F)F (single isomer, unassigned) [II-490] |
|  |  |  |  | 1 to 10 µM | 1 to 10 µM |  |  | +++ (≥350) | > 200% |  | COc1ccc(C(C)(C)C)cc1CN[C@H]1[C@H](C(C)(C)C)[C@@H](C(=O)O)N(C(=O)[C@@H](C)[C@H]2CCCCO2)[C@H]1c1ccccc1 (relative stereo) [II-455] |
|  |  |  |  | > 10 µM | 1 to 10 µM | ++ (≥150 and <350) |  |  | < 100% |  | CC(C)(C)[C@H]1[C@H](NCc2ccc(OC(F)(F)F)c(F)c2)[C@H](c2ccccc2)N(C(=O)C2CCCCC2)[C@@H]1C(=O)O [III-128] |
| 1 to 10 µM | < 1 µM | +++ (≥350) | > 200% |  |  |  |  |  |  |  | COc1cc(C(F)(F)F)ccc1CN[C@H]1[C@H](C(C)(C)OC)[C@@H](C(=O)O)N(C(=O)C2CCCCC2)[C@H]1c1ccccc1 [II-150] |
|  |  |  |  | 1 to 10 µM | 1 to 10 µM | +++ (≥350) | > 200% |  |  |  | COc1ccc(C(C)(C)C)cc1CN[C@H]1[C@H](C(C)(C)C)[C@@H](C(=O)O)N(C(=O)[C@H]2CCC[C@H](OC)C2)[C@H]1c1ccccc1 [Example I-58] |
|  |  |  |  | 1 to 10 µM | < 1 µM | +++ (≥350) |  |  |  | +++ (≥200) | COc1ccc(C(C)(C)C)cc1CN[C@H]1[C@H](C(C)(C)C)[C@@H](C(=O)O)N(C(=O)C2CCCC(F)(F)C2)[C@H]1c1cccnc1N(C)C (single isomer, unassigned) [Example 44, (2S,3S,4S,5S)-3-tert-butyl-4-{[(5-tert-butyl-2-methoxyphenyl)methyl]amino}-1-[(1S*)-3,3-difluorocyclohexane-1-carbonyl]-5-[2-(dimethylamino)pyridin-3-yl]pyrrolidine-2-carboxylic acid] |
| 1 to 10 µM | 1 to 10 µM | ++ (≥150 and <350) | < 100% |  |  |  |  |  |  |  | COc1cc(C(F)(F)F)ccc1CN[C@@H]1[C@@H](C(C)(C)C)[C@H](C(=O)O)N(C(=O)C(C)Oc2ccccc2)[C@@H]1c1ccccc1 (single isomer, unassigned) [II-58] |
|  |  |  |  | 1 to 10 µM | < 1 µM |  |  | +++ (≥350) | > 200% |  | C/C=C/CC(C/C=C/C)C(=O)N1[C@H](C(=O)O)[C@@H](C(C)(C)C)[C@H](NCc2cc(C(C)(C)C)ccc2OC)[C@@H]1c1ccccc1 [II-439] |
|  |  |  |  | 1 to 10 µM | < 1 µM | +++ (≥350) | > 200% |  |  |  | COc1ncc(C(F)(F)F)cc1CN[C@H]1[C@H](C(C)(C)C)[C@@H](C(=O)O)N(C(=O)[C@@H]2CCCC(F)(F)C2)[C@H]1c1ccccc1 [Example 49, (2S,3S,4S,5S)-3-tert-butyl-1-[(1R)-3,3-difluorocyclohexane-1-carbonyl]-4-({[2-methoxy-5-(trifluoromethyl)pyridin-3-yl]methyl}amino)-5-phenylpyrrolidine-2-carboxylic acid] |
|  |  |  |  | 1 to 10 µM | < 1 µM |  |  | +++ (≥350) | 100 to 200% |  | COc1nc(C(C)(C)C)ccc1CN[C@H]1[C@H](C(C)(C)C)[C@@H](C(=O)O)N(C(=O)OC(C)C)[C@H]1c1cccnc1OC(C)C [II-557] |
|  |  |  |  | 1 to 10 µM | 1 to 10 µM |  |  | ++ (≥150 and <350) | < 100% |  | CO[C@@H](C(=O)N1[C@H](c2ccccc2)[C@H](Nc2cc(C(F)(F)F)cc(C)n2)[C@@H](C(C)(C)C)[C@@H]1C(=O)O)c1ccccc1 [III-75] |
|  |  |  |  | 1 to 10 µM | 1 to 10 µM | +++ (≥350) | 100 to 200% |  |  |  | COc1nc(C2CCC2)ccc1CN[C@H]1[C@H](C(C)(C)C)[C@@H](C(=O)O)N(C(=O)C2CCCCC2)[C@H]1c1ccccc1 [Example I-242] |
|  |  |  |  | 1 to 10 µM | 1 to 10 µM | +++ (≥350) | > 200% |  |  |  | COc1ncc(C2CCCC2)cc1CN[C@H]1[C@H](C(C)(C)C)[C@@H](C(=O)O)N(C(=O)C2CCCCC2)[C@H]1c1cccnc1N(C)C [Example I-132] |
| 1 to 10 µM | 1 to 10 µM | +++ (≥350) | 100 to 200% |  |  |  |  |  |  |  | CC(C)(C)[C@H]1[C@H](Nc2cc(C#N)cnc2Cl)[C@H](c2ccccc2)N(C(=O)C2CCCCC2)[C@@H]1C(=O)O [II-145] |
|  |  |  |  | 1 to 10 µM | 1 to 10 µM | ++ (≥150 and <350) |  |  | < 100% |  | COc1cc(C(F)(F)F)ccc1CN[C@@H]1[C@@H](C(C)(C)C)[C@H](C(=O)O)N(C(=O)C2COCCO2)[C@@H]1c1ccccc1 (mixture of isomers) [III-113] |
| 1 to 10 µM | 1 to 10 µM | +++ (≥350) | > 200% |  |  |  |  |  |  |  | COc1ccc(C(C)C)cc1CN[C@@H]1[C@@H](C(C)(C)C)[C@H](C(=O)O)N(C(=O)C2CCCCC2)[C@@H]1c1ccccc1 (racemic) [II-73] |
|  |  |  |  | 1 to 10 µM | < 1 µM | +++ (≥350) |  |  | 100 to 200% |  | COc1ncc(C2CCC2)cc1CN[C@H]1[C@H](C(C)(C)C)[C@@H](C(=O)O)N(C(=O)C2CCCC(C(F)(F)F)C2)[C@H]1c1ccccc1 (some centres unmarked) [III-209] |
